Values joined by “and” are separate entries in the source; they are usually repeats but may differ in a detail not shown here. Equal values may be shown once.
Settings: Fluid (supercritical or subcritical phases), Coaxial cylinder method

FCC(F)(F)F [1,1,1,2-tetrafluoroethane]
Settings	thermal conductivity
379.09 K, 4452 kPa	0.0625 W/m/K
379.09 K, 4460 kPa	0.0627 W/m/K
379.09 K, 4464 kPa	0.063 W/m/K
379.09 K, 4470 kPa	0.063 W/m/K
379.09 K, 4475 kPa	0.063 W/m/K
379.09 K, 4484 kPa	0.063 W/m/K
379.09 K, 4500 kPa	0.0627 W/m/K
379.1 K, 4331 kPa	0.0441 W/m/K
379.17 K, 300 kPa	0.02023 W/m/K
379.22 K, 4504 kPa	0.0628 W/m/K
379.23 K, 4452 kPa	0.0608 W/m/K
379.23 K, 4453 kPa	0.0614 W/m/K
379.23 K, 4520 kPa	0.062 W/m/K
379.23 K, 4530 kPa	0.0615 W/m/K
379.24 K, 4540 kPa	0.0609 W/m/K
379.24 K, 4547 kPa	0.0606 W/m/K
379.24 K, 4560 kPa	0.0601 W/m/K
379.24 K, 4570 kPa	0.0599 W/m/K
379.25 K, 4442 kPa	0.0593 W/m/K
379.25 K, 4600 kPa	0.0591 W/m/K
379.25 K, 4620 kPa	0.0587 W/m/K
379.25 K, 4642 kPa	0.0584 W/m/K
379.26 K, 4431 kPa	0.0573 W/m/K
379.26 K, 4662 kPa	0.0579 W/m/K
379.26 K, 4680 kPa	0.0577 W/m/K
379.26 K, 4703 kPa	0.0575 W/m/K
379.26 K, 4739 kPa	0.0573 W/m/K
379.26 K, 4766 kPa	0.0573 W/m/K
379.26 K, 4806 kPa	0.057 W/m/K
379.27 K, 4424 kPa	0.0559 W/m/K
379.28 K, 4414 kPa	0.0545 W/m/K
379.29 K, 4404 kPa	0.053 W/m/K
379.3 K, 4396 kPa	0.0516 W/m/K
379.32 K, 4386 kPa	0.0501 W/m/K
379.33 K, 4376 kPa	0.0487 W/m/K
379.34 K, 4369 kPa	0.0478 W/m/K
379.36 K, 4355 kPa	0.0462 W/m/K
379.37 K, 4346 kPa	0.0453 W/m/K
379.39 K, 4330 kPa	0.0437 W/m/K
379.4 K, 4309 kPa	0.0422 W/m/K
379.4 K, 4317 kPa	0.0427 W/m/K
379.4 K, 4838 kPa	0.0567 W/m/K
379.4 K, 4888 kPa	0.0562 W/m/K
379.41 K, 4932 kPa	0.0558 W/m/K
379.41 K, 5000 kPa	0.0554 W/m/K
379.41 K, 5051 kPa	0.055 W/m/K
379.42 K, 4288 kPa	0.0408 W/m/K
379.43 K, 150 kPa	0.02035 W/m/K
379.43 K, 154 kPa	0.0231 W/m/K
379.43 K, 4282 kPa	0.0405 W/m/K
379.45 K, 4254 kPa	0.0389 W/m/K
379.47 K, 4224 kPa	0.0376 W/m/K
379.48 K, 4200 kPa	0.0367 W/m/K
379.5 K, 4165 kPa	0.0355 W/m/K
379.5 K, 4175 kPa	0.0358 W/m/K
379.72 K, 160 kPa	0.01996 W/m/K
381.53 K, 4627 kPa	0.0551 W/m/K
381.53 K, 4640 kPa	0.0555 W/m/K
381.53 K, 4650 kPa	0.056 W/m/K
381.53 K, 4660 kPa	0.0562 W/m/K
381.53 K, 4670 kPa	0.0565 W/m/K
381.53 K, 4680 kPa	0.0565 W/m/K
381.54 K, 4700 kPa	0.0562 W/m/K
381.54 K, 4760 kPa	0.056 W/m/K
381.55 K, 4612 kPa	0.0542 W/m/K
381.55 K, 4780 kPa	0.0558 W/m/K
381.55 K, 4800 kPa	0.0555 W/m/K
381.55 K, 4815 kPa	0.0553 W/m/K
381.56 K, 4600 kPa	0.0536 W/m/K
381.56 K, 4830 kPa	0.0551 W/m/K
381.56 K, 4860 kPa	0.0549 W/m/K
381.56 K, 4900 kPa	0.0542 W/m/K
381.56 K, 4920 kPa	0.0542 W/m/K
381.56 K, 4950 kPa	0.0543 W/m/K
381.56 K, 4982 kPa	0.0543 W/m/K
381.56 K, 5016 kPa	0.0543 W/m/K
381.56 K, 5068 kPa	0.0543 W/m/K
381.57 K, 5092 kPa	0.0539 W/m/K
381.57 K, 5125 kPa	0.0538 W/m/K
381.57 K, 5136 kPa	0.0538 W/m/K
381.57 K, 5169 kPa	0.0536 W/m/K
381.57 K, 5201 kPa	0.0536 W/m/K
381.58 K, 4569 kPa	0.0518 W/m/K
381.6 K, 4530 kPa	0.0495 W/m/K
381.61 K, 4516 kPa	0.0483 W/m/K
381.61 K, 4520 kPa	0.0487 W/m/K
381.61 K, 4525 kPa	0.049 W/m/K
381.62 K, 4510 kPa	0.0478 W/m/K
381.63 K, 4490 kPa	0.0464 W/m/K
381.63 K, 4500 kPa	0.0472 W/m/K and 0.0468 W/m/K
385.18 K, 4940 kPa	0.0522 W/m/K
